In US20250382344A1, “Soluble GLP1/GIP/NPY2 Receptor Triple Agonists” (Boehringer Ingelheim International GmH, priority 2024, published 2025):
Where two headings read alike, the source gives them in different places.

Columns and labels:
[1] = Solubility in 0.1 M phosphate buffer at pH 7; format: physicochemical; conditions: 0.1 M phosphate buffer at pH 7, 10 mg/mL final peptide concentration, shaking 2 hours at room temperature, peptides as TFA-salts; measured sample pH 6.5-7.0
[2] = target: T1, hNPY2R (Homo sapiens, UniProt P49146); test: hNPY2R CreLuc assay in 0.5% and 100% plasma (HEK-293 CRE-luciferase reporter cells); format: cell-based; conditions: HEK-293 reporter cells
T1 construct: expressed in transfected cells; host or cells: HEK-293 CRE-luciferase reporter cells
T1 sequence (P49146 1-381): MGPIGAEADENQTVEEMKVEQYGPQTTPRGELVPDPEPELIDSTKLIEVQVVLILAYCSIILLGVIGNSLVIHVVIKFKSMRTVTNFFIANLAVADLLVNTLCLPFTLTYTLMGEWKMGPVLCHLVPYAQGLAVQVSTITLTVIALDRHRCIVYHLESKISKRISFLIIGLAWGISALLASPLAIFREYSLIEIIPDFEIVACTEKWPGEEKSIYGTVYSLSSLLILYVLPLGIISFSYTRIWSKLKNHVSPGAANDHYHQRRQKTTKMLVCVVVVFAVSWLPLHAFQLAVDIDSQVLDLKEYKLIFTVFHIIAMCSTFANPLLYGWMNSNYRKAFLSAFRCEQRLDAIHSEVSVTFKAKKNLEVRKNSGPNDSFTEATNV

[3] = target: T2, hGIPR (Homo sapiens, UniProt P48546); test: hGIPR CreLuc assay in 0.5% and 100% plasma (CHO CRE-luciferase reporter cells); format: cell-based
T2 construct: expressed in transfected cells; host or cells: CHO CRE-luciferase reporter cells
T2 sequence (P48546 22-466): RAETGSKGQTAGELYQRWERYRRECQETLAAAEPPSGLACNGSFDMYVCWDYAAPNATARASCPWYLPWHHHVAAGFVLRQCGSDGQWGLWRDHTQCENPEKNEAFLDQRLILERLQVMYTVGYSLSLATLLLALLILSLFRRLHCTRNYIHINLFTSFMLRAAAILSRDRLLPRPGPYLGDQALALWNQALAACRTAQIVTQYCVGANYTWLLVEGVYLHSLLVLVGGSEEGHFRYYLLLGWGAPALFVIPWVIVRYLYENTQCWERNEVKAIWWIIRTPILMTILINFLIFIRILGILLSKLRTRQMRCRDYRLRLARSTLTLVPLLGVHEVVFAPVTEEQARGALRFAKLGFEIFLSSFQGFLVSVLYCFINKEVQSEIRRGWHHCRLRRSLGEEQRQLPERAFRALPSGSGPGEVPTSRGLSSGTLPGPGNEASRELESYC

[4] = target: T3, hGLP1R (Homo sapiens, UniProt P43220); test: hGLP1R CreLuc assay in 0.5% and 100% plasma (HEK-293 CRE-luciferase reporter cells); format: cell-based; conditions: HEK-293 reporter cells
T3 construct: expressed in transfected cells; host or cells: HEK-293 CRE-luciferase reporter cells
T3 sequence (P43220 24-463): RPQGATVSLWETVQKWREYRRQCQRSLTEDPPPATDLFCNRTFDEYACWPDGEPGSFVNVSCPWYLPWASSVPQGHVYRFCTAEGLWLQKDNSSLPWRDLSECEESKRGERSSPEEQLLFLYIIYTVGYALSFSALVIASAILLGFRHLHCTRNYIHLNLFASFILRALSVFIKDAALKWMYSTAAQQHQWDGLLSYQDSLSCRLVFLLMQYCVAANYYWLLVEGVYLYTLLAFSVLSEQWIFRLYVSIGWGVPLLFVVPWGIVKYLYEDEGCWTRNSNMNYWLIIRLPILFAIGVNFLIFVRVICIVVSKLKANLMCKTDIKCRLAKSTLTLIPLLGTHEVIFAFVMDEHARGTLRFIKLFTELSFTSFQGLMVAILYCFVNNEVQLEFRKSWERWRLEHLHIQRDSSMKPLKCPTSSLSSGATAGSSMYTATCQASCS

[5] = 100% human plasma, read-out: hNPY2R 100% hP
[6] = 0.5% human plasma, read-out: hGIPR 0.5% hP
[7] = 0.5% human plasma, read-out: hGLP1R 0.5% hP
[8] = 0.5% human plasma, read-out: hNPY2R 0.5% hP
[9] = 100% human plasma, read-out: hGLP1R 100% hP

In the case of CC[C@H](C)[C@H](NC(=O)[C@H](CC(C)C)NC(=O)[C@H](CCC(N)=O)NC(=O)[C@H](CCCNC(=N)N)NC(=O)[C@@H](NC(=O)[C@H](Cc1ccccc1)NC(=O)[C@H](C)NC(=O)C(C)(C)NC(=O)[C@H](CCC(N)=O)NC(=O)[C@H](C)NC(=O)[C@H](CCC(N)=O)NC(=O)[C@H](CCCCN)NC(=O)[C@H](CCC(=O)O)NC(=O)[C@H](CC(C)C)NC(=O)C(C)(C)NC(=O)[C@@H](NC(=O)[C@H](CO)NC(=O)[C@H](Cc1ccc(O)cc1)NC(=O)[C@H](CC(=O)O)NC(=O)[C@H](CO)NC(=O)[C@@H](NC(=O)[C@H](Cc1ccccc1)NC(=O)[C@@H](NC(=O)CNC(=O)[C@H](CCC(=O)O)NC(=O)C(C)(C)NC(=O)[C@@H](N)Cc1ccc(O)cc1)[C@@H](C)O)[C@@H](C)O)[C@@H](C)CC)C(C)C)C(=O)N[C@@H](CC(N)=O)C(=O)N[C@@H](CCCCNC(=O)CC[C@H](NC(=O)CC[C@H](NC(=O)CC[C@H](NC(=O)CC[C@H](NC(=O)CC[C@H](NC(=O)CCCCCCCCCCCCCCCCC(=O)O)C(=O)O)C(=O)O)C(=O)O)C(=O)O)C(=O)O)C(=O)NC(C)(C)C(=O)N[C@H](C(=O)N[C@@H](CCCNC(=N)N)C(=O)N[C@@H](CCC(N)=O)C(=O)N[C@@H](CCCNC(=N)N)C(=O)N[C@@H](Cc1ccc(O)cc1)C(N)=O)[C@@H](C)O [Compound 50, Y-Aib-E-G-T-F-T-S-D-Y-S-I-Aib-L-E-K-Q-A-Q-Aib-A-F-V-R-Q-L-I-N-K(1,3)-Aib-T-R-Q-R-Y-NH2.C18DA-gGlu-gGlu-gGlu-gGlu-gGlu(1,2)], the solubility at 2 h [1] is reported as 4500 µg/mL, the EC50 [2, 5] is reported as 523 nM and the EC50 [3, 6] is reported as 0.7 nM. For the same molecule, the EC50 [4, 7] was 0.7 nM.

In the case of CC[C@H](C)[C@H](NC(=O)[C@H](CC(C)C)NC(=O)[C@H](Cc1c[nH]cn1)NC(=O)[C@H](CCCNC(=N)N)NC(=O)[C@@H](NC(=O)[C@H](Cc1ccccc1)NC(=O)[C@H](CCC(=O)O)NC(=O)C(C)(C)NC(=O)[C@H](CCC(N)=O)NC(=O)[C@H](C)NC(=O)[C@H](CCC(N)=O)NC(=O)[C@H](CCCCN)NC(=O)[C@H](CCC(=O)O)NC(=O)[C@H](CC(C)C)NC(=O)C(C)(C)NC(=O)[C@@H](NC(=O)[C@H](CO)NC(=O)[C@H](Cc1ccc(O)cc1)NC(=O)[C@H](CC(=O)O)NC(=O)[C@H](CO)NC(=O)[C@@H](NC(=O)[C@H](Cc1ccccc1)NC(=O)[C@@H](NC(=O)CNC(=O)[C@H](CCC(=O)O)NC(=O)C(C)(C)NC(=O)[C@@H](N)Cc1ccc(O)cc1)[C@@H](C)O)[C@@H](C)O)[C@@H](C)CC)C(C)C)C(=O)N[C@@H](CC(N)=O)C(=O)N[C@@H](CCCCNC(=O)CCCCCNC(=O)CC[C@H](NC(=O)CC[C@H](NC(=O)CC[C@H](NC(=O)CC[C@H](NC(=O)CC[C@H](NC(=O)CCCCCCCCCCCCCCCCC(=O)O)C(=O)O)C(=O)O)C(=O)O)C(=O)O)C(=O)O)C(=O)NC(C)(C)C(=O)N[C@H](C(=O)N[C@@H](CCCNC(=N)N)C(=O)N[C@@H](CCC(N)=O)C(=O)N[C@@H](CCCNC(=N)N)C(=O)N[C@@H](Cc1ccc(O)cc1)C(N)=O)[C@@H](C)O [Compound 14, Y-Aib-E-G-T-F-T-S-D-Y-S-I-Aib-L-E-K-Q-A-Q-Aib-E-F-V-R-H-L-I-N-K(1,3)-Aib-T-R-Q-R-Y-NH2.C18DA-gGlu-gGlu-gGlu-gGlu-gGlu-AHX(1,2)], the solubility at 2 h [1] is reported as 4800 µg/mL, the EC50 [2, 8] is reported as 16.8 nM and the EC50 [2, 5] is reported as 387 nM. For the same molecule, the EC50 [3, 6] was 0.1 nM, the EC50 ([3]; 100% human plasma, read-out: hGIPR 100% hP) was 6.2 nM and the EC50 [4, 7] was 0.3 nM. The EC50 [4, 9] was 0.9 nM.

CC[C@H](C)[C@H](NC(=O)[C@H](CC(C)C)NC(=O)[C@H](Cc1c[nH]cn1)NC(=O)[C@H](CCCNC(=N)N)NC(=O)[C@@H](NC(=O)[C@H](Cc1ccccc1)NC(=O)[C@H](CCC(=O)O)NC(=O)C(C)(C)NC(=O)[C@H](CCC(N)=O)NC(=O)[C@H](C)NC(=O)[C@H](CCC(=O)O)NC(=O)[C@H](CCC(=O)O)NC(=O)[C@H](CCC(=O)O)NC(=O)[C@H](CC(C)C)NC(=O)C(C)(C)NC(=O)[C@@H](NC(=O)[C@H](CO)NC(=O)[C@H](Cc1ccc(O)cc1)NC(=O)[C@H](CC(=O)O)NC(=O)[C@H](CO)NC(=O)[C@@H](NC(=O)[C@H](Cc1ccccc1)NC(=O)[C@@H](NC(=O)CNC(=O)[C@H](CCC(=O)O)NC(=O)C(C)(C)NC(=O)[C@@H](N)Cc1ccc(O)cc1)[C@@H](C)O)[C@@H](C)O)[C@@H](C)CC)C(C)C)C(=O)N[C@@H](CC(N)=O)C(=O)N[C@@H](CCCCNC(=O)CC[C@H](NC(=O)CC[C@H](NC(=O)CC[C@H](NC(=O)CC[C@H](NC(=O)CCCCCCCCCCCCCCCCC(=O)O)C(=O)O)C(=O)O)C(=O)O)C(=O)O)C(=O)NC(C)(C)C(=O)N[C@H](C(=O)N[C@@H](CCCNC(=N)N)C(=O)N[C@@H](CCC(N)=O)C(=O)N[C@@H](CCCNC(=N)N)C(=O)N[C@@H](Cc1ccc(O)cc1)C(N)=O)[C@@H](C)O [Compound 64, Y-Aib-E-G-T-F-T-S-D-Y-S-I-Aib-L-E-E-E-A-Q-Aib-E-F-V-R-H-L-I-N-K(1,3)-Aib-T-R-Q-R-Y-NH2.C18DA-gGlu-gGlu-gGlu-gGlu(1,2)] gave a solubility at 2 h [1] of 4800 µg/mL, an EC50 [2, 8] of 162 nM and an EC50 [3, 6] of 0.5 nM. For the same molecule, the EC50 [4, 7] was 0.5 nM.

In the case of CC[C@H](C)[C@H](NC(=O)[C@H](CC(C)C)NC(=O)[C@H](Cc1c[nH]cn1)NC(=O)[C@H](CCCNC(=N)N)NC(=O)[C@@H](NC(=O)[C@H](Cc1ccccc1)NC(=O)[C@H](C)NC(=O)C(C)(C)NC(=O)[C@H](CCC(N)=O)NC(=O)[C@H](C)NC(=O)[C@H](CCC(N)=O)NC(=O)[C@H](CCCCN)NC(=O)[C@H](CC(=O)O)NC(=O)[C@H](CC(C)C)NC(=O)C(C)(C)NC(=O)[C@@H](NC(=O)[C@H](CO)NC(=O)[C@H](Cc1ccc(O)cc1)NC(=O)[C@H](CC(=O)O)NC(=O)[C@H](CO)NC(=O)[C@@H](NC(=O)[C@H](Cc1ccccc1)NC(=O)[C@@H](NC(=O)CNC(=O)[C@H](CCC(=O)O)NC(=O)C(C)(C)NC(=O)[C@@H](N)Cc1ccc(O)cc1)[C@@H](C)O)[C@@H](C)O)[C@@H](C)CC)C(C)C)C(=O)N[C@@H](CC(N)=O)C(=O)N[C@@H](CCCCNC(=O)[C@@H](N)CCCCNC(=O)CC[C@H](NC(=O)CC[C@H](NC(=O)CC[C@H](NC(=O)CC[C@H](NC(=O)CC[C@H](NC(=O)CC[C@H](NC(=O)CCCCCCCCCCCCCCCCC(=O)O)C(=O)O)C(=O)O)C(=O)O)C(=O)O)C(=O)O)C(=O)O)C(=O)NC(C)(C)C(=O)N[C@H](C(=O)N[C@@H](CCCNC(=N)N)C(=O)N[C@@H](CCC(N)=O)C(=O)N[C@@H](CCCNC(=N)N)C(=O)N[C@@H](Cc1ccc(O)cc1)C(N)=O)[C@@H](C)O [Compound 105, Y-Aib-E-G-T-F-T-S-D-Y-S-I-Aib-L-D-K-Q-A-Q-Aib-A-F-V-R-H-L-I-N-K(1,3)-Aib-T-R-Q-R-Y-NH2.C18DA-gGlu-gGlu-gGlu-gGlu-gGlu-gGlu-eLys(1,2)], the solubility at 2 h [1] is reported as 8000 µg/mL, the EC50 [2, 8] is reported as 19.9 nM and the EC50 [3, 6] is reported as 0.4 nM. It also gave an EC50 [4, 7] of 0.3 nM and an EC50 [4, 9] of 3.4 nM.

Molecule CC[C@H](C)[C@H](NC(=O)[C@H](CC(C)C)NC(=O)[C@H](Cc1c[nH]cn1)NC(=O)[C@H](CCCNC(=N)N)NC(=O)[C@@H](NC(=O)[C@H](Cc1ccccc1)NC(=O)[C@H](C)NC(=O)C(C)(C)NC(=O)[C@H](CCC(N)=O)NC(=O)[C@H](C)NC(=O)[C@H](CCC(N)=O)NC(=O)[C@H](CCCCN)NC(=O)[C@H](CCC(=O)O)NC(=O)[C@H](CC(C)C)NC(=O)C(C)(C)NC(=O)[C@@H](NC(=O)[C@H](CO)NC(=O)[C@H](Cc1ccc(O)cc1)NC(=O)[C@H](CC(=O)O)NC(=O)[C@H](CO)NC(=O)[C@@H](NC(=O)[C@H](Cc1ccccc1)NC(=O)[C@@H](NC(=O)CNC(=O)[C@H](CCC(=O)O)NC(=O)C(C)(C)NC(=O)[C@@H](N)Cc1ccc(O)cc1)[C@@H](C)O)[C@@H](C)O)[C@@H](C)CC)C(C)C)C(=O)N[C@@H](CC(N)=O)C(=O)N[C@@H](CCCCNC(=O)[C@@H](N)CCCNC(=O)CC[C@H](NC(=O)CC[C@H](NC(=O)CC[C@H](NC(=O)CC[C@H](NC(=O)CC[C@H](NC(=O)CC[C@H](NC(=O)CCCCCCCCCCCCCCCCCCC(=O)O)C(=O)O)C(=O)O)C(=O)O)C(=O)O)C(=O)O)C(=O)O)C(=O)NC(C)(C)C(=O)N[C@H](C(=O)N[C@@H](CCCNC(=N)N)C(=O)N[C@@H](CCC(N)=O)C(=O)N[C@@H](CCCNC(=N)N)C(=O)N[C@@H](Cc1ccc(O)cc1)C(N)=O)[C@@H](C)O [Compound 97, Y-Aib-E-G-T-F-T-S-D-Y-S-I-Aib-L-E-K-Q-A-Q-Aib-A-F-V-R-H-L-I-N-K(1,3)-Aib-T-R-Q-R-Y-NH2.C20DA-gGlu-gGlu-gGlu-gGlu-gGlu-gGlu-dtOrn(1,2)] has a solubility at 2 h [1] of 4700 µg/mL, an EC50 [2, 5] of 135 nM and an EC50 [3, 6] of 0.6 nM. For the same molecule, the EC50 [4, 7] was 3.8 nM.
